From patent US8852953B2, “Immunodetection and quantification of pyrazolopyrimidine sedatives” (Randox Laboratories Ltd., priority 2009, dated 2014)
Converted amounts (≈) assume the structure as drawn.

How the values were obtained:
[1] = tested on: antiserum raised to Immunogen A (Hapten-A-BTG); test: Competitive ELISA with antiserum raised to Immunogen A and Conjugate A (Hapten-A-HRP) as detection reagent; type: binding, sheep
Protocol: Aqueous solutions of the immunogens prepared in Examples 6 and 12 were formulated with Freund's Complete Adjuvant (FCA) to form emulsions of Immunogen A and Immunogen [[B]]C in 50% (v/v) FCA. Individual sheep were immunised with the emulsions of Immunogen A and Immunogen C (primary immunisations), 0.25 ml being subcutaneously injected in the flank of each animal. Subsequent boosts of emulsified immunogens in 50% (v/v) Freund's Incomplete Adjuvant (FIA) were at monthly intervals for 1 year. Blood sampling took place 7-14 days after each boost. Each sample was processed to produce antisera which were further purified by caprylic acid and ammonium sulfate precipitated to yield an immunoglobulin G (IgG) fraction. The IgG fraction was evaluated by competitive ELISA microtitre plate assay, as described in Example 15.
The wells of an enhanced binding 96 well polystyrene microtitre plate were coated with the IgG fraction of the antiserum raised to Immunogen A Hapten A-BTG diluted in 10 mM Tris, pH8.5 (125 μl/well). The appropriate antibody coating dilution was determined using standard ELISA chequerboard techniques. The plate was incubated for 2 hours at 37° C., washed 4 times with Tris buffered saline containing Tween 20 (TBST) and tapped dry. […] 75 μl of Conjugate A (Hapten A-HRP), diluted in Tris buffer containing EDTA, D-mannitol, sucrose, thimerosal and BSA, was added to each of the wells. The appropriate dilution of conjugate was also determined using standard ELISA chequerboard techniques. The plate was incubated at 25° C. for 1 hour. The excess unbound conjugate was removed by washing 6 times over a 10 minute period with TBST. 125 μl of tetramethylbenzedine (TMB) substrate solution was added to each well of the plate and incubated for 20 minutes in the dark at room temperature. The reaction was stopped by the addition of 125 μl of 0.2M H2SO4 to each well. The absorbance was then measured at 450 nm using a microtitre plate reader.

[2] = tested on: antiserum raised to Immunogen C (Hapten-C-BTG); test: Competitive ELISA with antiserum raised to Immunogen C and Conjugate C (Hapten-C-HRP) as detection reagent; type: binding, sheep; settings: for % CR (percentage cross-reactivity based on specificity to Zaleplon) / IC50 (standard concentration which produces 50% B/B0): antiserum to Immunogen C, Conjugate C
[3] = antiserum to Immunogen A, Conjugate A
[4] = standard concentration 0.156 ng/ml
[5] = standard concentration 0.313 ng/ml
[6] = standard concentration 0.625 ng/ml
[7] = standard concentration 1.250 ng/ml
[8] = standard concentration 2.500 ng/ml
[9] = standard concentration 5.000 ng/ml
[10] = standard concentration 10.000 ng/ml
[11] = standard concentration 0.025 ng/ml
[12] = standard concentration 0.050 ng/ml
[13] = standard concentration 0.100 ng/ml
[14] = standard concentration 0.200 ng/ml
[15] = standard concentration 0.400 ng/ml
[16] = standard concentration 0.800 ng/ml
[17] = standard concentration 1.600 ng/ml

| Structure (SMILES) | % CR (percentage cross-reactivity based on specificity to Zaleplon) [1, 3] | % CR (percentage cross-reactivity based on specificity to Zaleplon) [2] | IC50 (standard concentration which produces 50% B/B0) [2] | % B/B0 [2, 4] | A450 [2, 4] | % B/B0 [2, 5] | A450 [2, 5] | % B/B0 [2, 6] | A450 [2, 6] | % B/B0 [2, 7] | A450 [2, 7] | % B/B0 [2, 8] | A450 [2, 8] | % B/B0 [2, 9] | A450 [2, 9] | % B/B0 [2, 10] | A450 [2, 10] | other results |
| --- | --- | --- | --- | --- | --- | --- | --- | --- | --- | --- | --- | --- | --- | --- | --- | --- | --- | --- |
| CC(=O)N(C)c1cccc(-c2ccnc3c(C(=O)c4cccs4)cnn23)c1 [Indiplon, indiplon] | <0.63% | 22% | 1.967 ng/mL (≈ 5.23 nM) | 84% | 1.831 | 77% | 1.664 | 67% | 1.455 | 57% | 1.234 | 46% | 1.006 | 36% | 0.778 | 27% | 0.579 | IC50 (standard concentration which produces 50% B/B0) [1, 3]: >10 ng/mL; % B/B0 [1, 4]: 96%; A450 [1, 4]: 2.063; % B/B0 [1, 5]: 94%; A450 [1, 5]: 2.019; % B/B0 [1, 6]: 93%; A450 [1, 6]: 1.982; % B/B0 [1, 7]: 99%; A450 [1, 7]: 2.112; % B/B0 [1, 8]: 88%; A450 [1, 8]: 1.877; % B/B0 [1, 9]: 91%; A450 [1, 9]: 1.940; % B/B0 [1, 10]: 90%; A450 [1, 10]: 1.931 |
| CCN(C(C)=O)c1cccc(-c2ccnc3c(C#N)cnn23)c1 [Zaleplon, zaleplon] | 100% | 100% | 0.432 ng/mL (≈ 1.41 nM) | 65% | 1.487 | 54% | 1.236 | 45% | 1.021 | 36% | 0.825 | 27% | 0.610 | 20% | 0.457 | 15% | 0.337 | IC50 of zaleplon-specific antibody ([1]; as stated in the description): 0.063 ng/mL; % B/B0 [1, 11]: 72%; A450 [1, 11]: 1.542; % B/B0 [1, 12]: 55%; A450 [1, 12]: 1.180; % B/B0 [1, 13]: 40%; A450 [1, 13]: 0.860; % B/B0 [1, 14]: 28%; A450 [1, 14]: 0.602; % B/B0 [1, 15]: 19%; A450 [1, 15]: 0.406; % B/B0 [1, 16]: 13%; A450 [1, 16]: 0.286; % B/B0 [1, 17]: 10%; A450 [1, 17]: 0.211 |
